Laboratory results as given in US20240150377A1, “MODULATORS OF CYSTIC FIBROSIS TRANSMEMBRANE CONDUCTANCE REGULATOR” (VERTEX PHARMACEUTICALS INCORPORATED, priority 2020, published 2024).
Read-outs that look alike come from different tables or passages of the source.

Tests used:
[1] = target: T1, CFTR (Homo sapiens, UniProt P13569, DEL508-508); test: HBE assay: Ussing chamber assay of CFTR-mediated short-circuit currents; assay type: cell-based; settings: for EC50: read-out: HBE EC50
T1 construct: endogenous in cells; host or cells: primary human bronchial epithelial cells from CF subjects (F508del/MF-HBE), differentiated at air-liquid interface
T1 sequence (P13569 with tags, fused parts or gaps DEL508-508): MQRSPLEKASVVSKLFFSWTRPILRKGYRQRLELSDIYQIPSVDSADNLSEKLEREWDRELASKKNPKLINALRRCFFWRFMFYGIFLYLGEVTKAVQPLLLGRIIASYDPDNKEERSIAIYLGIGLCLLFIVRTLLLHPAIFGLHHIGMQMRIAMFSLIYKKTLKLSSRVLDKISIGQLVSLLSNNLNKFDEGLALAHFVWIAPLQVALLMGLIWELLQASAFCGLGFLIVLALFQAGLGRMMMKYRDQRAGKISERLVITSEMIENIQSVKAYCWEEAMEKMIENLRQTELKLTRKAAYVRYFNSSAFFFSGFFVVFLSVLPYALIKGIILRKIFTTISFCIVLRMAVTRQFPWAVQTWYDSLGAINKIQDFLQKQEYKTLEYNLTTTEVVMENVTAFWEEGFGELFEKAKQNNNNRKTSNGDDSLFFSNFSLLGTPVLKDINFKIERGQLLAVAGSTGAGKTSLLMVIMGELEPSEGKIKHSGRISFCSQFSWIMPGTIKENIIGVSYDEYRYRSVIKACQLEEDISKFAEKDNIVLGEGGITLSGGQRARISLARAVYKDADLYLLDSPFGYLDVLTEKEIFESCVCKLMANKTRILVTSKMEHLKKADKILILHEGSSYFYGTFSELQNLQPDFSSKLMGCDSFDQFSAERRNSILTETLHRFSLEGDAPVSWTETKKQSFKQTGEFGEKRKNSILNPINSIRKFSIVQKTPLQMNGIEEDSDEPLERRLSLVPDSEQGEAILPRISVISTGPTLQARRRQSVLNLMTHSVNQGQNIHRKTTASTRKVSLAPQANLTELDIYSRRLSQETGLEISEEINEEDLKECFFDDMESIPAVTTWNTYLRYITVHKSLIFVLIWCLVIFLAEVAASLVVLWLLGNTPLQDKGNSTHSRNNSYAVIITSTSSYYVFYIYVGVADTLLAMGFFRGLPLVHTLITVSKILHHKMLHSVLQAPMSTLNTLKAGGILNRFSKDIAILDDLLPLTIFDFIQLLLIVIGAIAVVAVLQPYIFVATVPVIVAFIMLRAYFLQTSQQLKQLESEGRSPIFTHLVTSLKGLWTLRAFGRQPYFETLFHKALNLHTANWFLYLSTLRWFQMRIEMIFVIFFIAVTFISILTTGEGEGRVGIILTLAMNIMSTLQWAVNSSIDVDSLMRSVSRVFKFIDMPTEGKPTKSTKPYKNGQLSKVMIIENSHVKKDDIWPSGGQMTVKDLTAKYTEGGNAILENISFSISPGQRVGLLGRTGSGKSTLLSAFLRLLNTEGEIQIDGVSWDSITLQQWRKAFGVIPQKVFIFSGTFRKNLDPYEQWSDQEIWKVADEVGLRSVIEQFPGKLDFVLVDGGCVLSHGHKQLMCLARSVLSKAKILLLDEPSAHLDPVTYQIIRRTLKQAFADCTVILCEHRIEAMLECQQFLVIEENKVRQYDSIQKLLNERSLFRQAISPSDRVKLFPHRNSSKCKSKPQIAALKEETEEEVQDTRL
Method in brief: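 CFTR-mediated Isc (μA/cm²) equals the peak response to apical 20 μM forskolin minus the residual after a 20 μM each BPO/GlyH-101/CFTR inhibitor 172 cocktail, recorded in Ussing chambers at Vhold 0 mV, 37 °C, pH 7.4, with 30 μM apical amiloride. Cells were F508del/MF HBE cultures preincubated 18-24 h with corrector (concentration range or 10 μM) plus 1 μM ivacaftor in 20% human serum.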

[2] = amide bond, 13-membered ring, DMF
[3] = Table 10, read-out: HBE Max activity (%)
[4] = Table 11, read-out: HBE Max Activity (%)

Row | Structure (SMILES) | EC50 ([1]; Table 10) | Emax [1, 3] | EC50 ([1]; Table 11) | Emax [1, 4] | other results
1 | Cc1cccc(C)c1-c1cc2nc(n1)NS(=O)(=O)c1cccc(c1)C(=O)N(Cc1ccc3ccccc3n1)[C@H](CC(C)(C)C)CO2 [Compound 58, (11R)-6-(2,6-Dimethylphenyl)-11-(2,2-dimethylpropyl)-2,2-dioxo-12-(2-quinolylmethyl)-9-oxa-2λ^6-thia-3,5,12,19-tetrazatricyclo[12.3.1.14,8]nonadeca-1(18),4(19),5,7,14,16-hexaen-13-one] | < 1 µM | > 60% |  |  | ring closure, yield after HPLC ([2]; from 3-[[4-(2,6-dimethylphenyl)-6-[(2R)-4,4-dimethyl-2-(2-quinolylmethylamino)pentoxy]pyrimidin-2-yl]sulfamoyl]benzoic acid (Dihydrochloride salt), HATU/DIEA, 27.5 mM, 25.0 °C): 73%
2 | Cc1cccc(C)c1-c1cc2nc(n1)NS(=O)(=O)c1cccc(c1)C(=O)N(Cc1cccn(C)c1=O)[C@H](CC(C)(C)C)CO2 [Compound 59, (11R)-6-(2,6-Dimethylphenyl)-11-(2,2-dimethylpropyl)-12-[(1-methyl-2-oxo-3-pyridyl)methyl]-2,2-dioxo-9-oxa-2λ^6-thia-3,5,12,19-tetrazatricyclo[12.3.1.14,8]nonadeca-1(18),4(19),5,7,14,16-hexaen-13-one] |  |  | < 1 µM | > 60% | ring closure, yield after HPLC ([2]; from Cc1cccc(C)c1-c1cc(OC[C@@H](CC(C)(C)C)NCc2cccn(C)c2=O)nc(NS(=O)(=O)c2cccc(C(=O)O)c2)n1, HATU/DIEA, 28.1 mM, 25.0 °C, 2.0 h): 54%
3 | Cc1cccc(C)c1-c1cc2nc(n1)NS(=O)(=O)c1cccc(c1)C(=O)N(Cc1ccc(N3CCOCC3)nn1)[C@H](CC(C)(C)C)CO2 [Compound 111, (11R)-6-(2,6-Dimethylphenyl)-11-(2,2-dimethylpropyl)-12-[(6-morpholinopyridazin-3-yl)methyl]-2,2-dioxo-9-oxa-2λ^6-thia-3,5,12,19-tetrazatricyclo[12.3.1.14,8]nonadeca-1(18),4(19),5,7,14,16-hexaen-13-one] | < 1 µM | > 60% |  |  | ring closure, yield after HPLC ([2]; from Cc1cccc(C)c1-c1cc(OC[C@@H](CC(C)(C)C)NCc2ccc(N3CCOCC3)nn2)nc(NS(=O)(=O)c2cccc(C(=O)O)c2)n1, CDMT/NMM, 25.0 °C, 3.0 h, 2 steps): 10%
4 | COCCN(C)c1cnc(CN2C(=O)c3cccc(c3)S(=O)(=O)Nc3nc(cc(-c4c(C)cccc4C)n3)OC[C@H]2CC(C)(C)C)nc1 [Compound 114, (11R)-6-(2,6-Dimethylphenyl)-11-(2,2-dimethylpropyl)-12-[[5-[2-methoxyethyl(methyl)amino]pyrimidin-2-yl]methyl]-2,2-dioxo-9-oxa-2λ^6-thia-3,5,12,19-tetrazatricyclo[12.3.1.14,8]nonadeca-1(18),4(19),5,7,14,16-hexaen-13-one] | < 1 µM | > 60% |  |  | ring closure, yield after HPLC ([2]; from 3-[[4-(2,6-dimethylphenyl)-6-[(2R)-2-[[5-[2-methoxyethyl(methyl)amino]pyrimidin-2-yl]methylamino]-4,4-dimethyl-pentoxy]pyrimidin-2-yl]sulfamoyl]benzoic acid (Dihydrochloride salt), HATU/DIEA, 10.5 mM, 25.0 °C): 53%
5 | Cc1cccc(C)c1-c1cc2nc(n1)NS(=O)(=O)c1cccc(c1)C(=O)N(Cc1ncc(N(C)CC(C)(C)C)cn1)[C@H](CC(C)(C)C)CO2 [Compound 115, (11R)-6-(2,6-Dimethylphenyl)-11-(2,2-dimethylpropyl)-12-[[5-[2,2-dimethylpropyl(methyl)amino]pyrimidin-2-yl]methyl]-2,2-dioxo-9-oxa-2λ^6-thia-3,5,12,19-tetrazatricyclo[12.3.1.14,8]nonadeca-1(18),4(19),5,7,14,16-hexaen-13-one] | < 1 µM | > 60% |  |  | ring closure, yield after HPLC ([2]; from 3-[[4-(2,6-dimethylphenyl)-6-[(2R)-2-[[5-[2,2-dimethylpropyl(methyl)amino]pyrimidin-2-yl]methylamino]-4,4-dimethyl-pentoxy]pyrimidin-2-yl]sulfamoyl]benzoic acid (Dihydrochloride salt), HATU/DIEA, 19.3 mM, 25.0 °C): 50%
6 | Cc1cccc(C)c1-c1cc2nc(n1)NS(=O)(=O)c1cccc(c1)C(=O)N(Cc1ncc(NCC(C)(C)C)cn1)[C@H](CC(C)(C)C)CO2 [Compound 116, (11R)-6-(2,6-Dimethylphenyl)-11-(2,2-dimethylpropyl)-12-[[5-(2,2-dimethylpropylamino)pyrimidin-2-yl]methyl]-2,2-dioxo-9-oxa-2λ^6-thia-3,5,12,19-tetrazatricyclo[12.3.1.14,8]nonadeca-1(18),4(19),5,7,14,16-hexaen-13-one] |  |  | < 1 µM | > 60% | activation at 10 µM ([1]; Table 11, at 10 μM, read-out: HBE Activity at 10 μM (%)): > 60%; ring closure, yield after HPLC ([2]; from 3-[[4-(2,6-dimethylphenyl)-6-[(2R)-2-[[5-(2,2-dimethylpropylamino)pyrimidin-2-yl]methylamino]-4,4-dimethyl-pentoxy]pyrimidin-2-yl]sulfamoyl]benzoic acid (Dihydrochloride salt), HATU/DIEA, 23.6 mM, 25.0 °C): 15%
7 | Cc1cccc(C)c1-c1cc2nc(n1)NS(=O)(=O)c1cccc(c1)C(=O)N(Cc1ncc(OC(C)C)cn1)[C@H](CC(C)(C)C)CO2 [Compound 118, (11R)-6-(2,6-Dimethylphenyl)-11-(2,2-dimethylpropyl)-12-{[5-(propan-2-yloxy)pyrimidin-2-yl]methyl}-9-oxa-2λ^6-thia-3,5,12,19-tetraazatricyclo[12.3.1.14,8]nonadeca-1(17),4,6,8(19),14(18),15-hexaene-2,2,13-trione] |  |  | < 1 µM | > 60% | ring closure, yield after HPLC ([2]; from Cc1cccc(C)c1-c1cc(OC[C@@H](CC(C)(C)C)NCc2ncc(OC(C)C)cn2)nc(NS(=O)(=O)c2cccc(C(=O)O)c2)n1, CDMT/NMM, 14.3 mM, 13.25 h): 59%
8 | Cc1cccc(C)c1-c1cc2nc(n1)NS(=O)(=O)c1cccc(c1)C(=O)N(Cc1ncc(N3CCC(C)(C)C3)cn1)[C@H](CC(C)(C)C)CO2 [Compound 119, (11R)-6-(2,6-Dimethylphenyl)-11-(2,2-dimethylpropyl)-12-[[5-(3,3-dimethylpyrrolidin-1-yl)pyrimidin-2-yl]methyl]-2,2-dioxo-9-oxa-2λ^6-thia-3,5,12,19-tetrazatricyclo[12.3.1.14,8]nonadeca-1(18),4(19),5,7,14,16-hexaen-13-one] |  |  | 1 to 3 µM | > 60% | ring closure, yield after HPLC ([2]; from 3-[[4-(2,6-dimethylphenyl)-6-[(2R)-2-[[5-(3,3-dimethylpyrrolidin-1-yl)pyrimidin-2-yl]methylamino]-4,4-dimethyl-pentoxy]pyrimidin-2-yl]sulfamoyl]benzoic acid (Dihydrochloride salt), CDMT/NMM, 29.4 mM): 47%
9 | Cc1cccc(C)c1-c1cc2nc(n1)NS(=O)(=O)c1cccc(c1)C(=O)N(Cc1nccc(C(F)(F)F)n1)[C@H](CC(C)(C)C)CO2 [Compound 122, (11R)-6-(2,6-Dimethylphenyl)-11-(2,2-dimethylpropyl)-12-{[4-(trifluoromethyl)pyrimidin-2-yl]methyl}-9-oxa-2λ^6-thia-3,5,12,19-tetraazatricyclo[12.3.1.14,8]nonadeca-1(17),4,6,8(19),14(18),15-hexaene-2,2,13-trione] |  |  | < 1 µM | > 60% | ring closure, yield after HPLC ([2]; from Cc1cccc(C)c1-c1cc(OC[C@@H](CC(C)(C)C)NCc2nccc(C(F)(F)F)n2)nc(NS(=O)(=O)c2cccc(C(=O)O)c2)n1, CDMT/NMM, 27.3 mM): 48%
10 | COCc1cccc(CN2C(=O)c3cccc(c3)S(=O)(=O)Nc3nc(cc(-c4c(C)cccc4C)n3)OC[C@H]2CC(C)(C)C)n1 [Compound 130, (11R)-6-(2,6-Dimethylphenyl)-11-(2,2-dimethylpropyl)-12-[[6-(methoxymethyl)-2-pyridyl]methyl]-2,2-dioxo-9-oxa-2λ^6-thia-3,5,12,19-tetrazatricyclo[12.3.1.14,8]nonadeca-1(18),4(19),5,7,14,16-hexaen-13-one] |  |  | < 1 µM | > 60% | ring closure, yield after HPLC ([2]; from COCc1cccc(CN[C@@H](COc2cc(-c3c(C)cccc3C)nc(NS(=O)(=O)c3cccc(C(=O)O)c3)n2)CC(C)(C)C)n1, CDMT/NMM, 3.0 h, 2 steps): 10%
11 | Cc1cccc(C)c1-c1cc2nc(n1)NS(=O)(=O)c1cccc(c1)C(=O)N(Cc1cc(C(C)(C)C)[nH]n1)[C@H](CC(C)(C)C)CO2 [Compound 134, (11R)-12-[(5-tert-Butyl-1H-pyrazol-3-yl)methyl]-6-(2,6-dimethylphenyl)-11-(2,2-dimethylpropyl)-2,2-dioxo-9-oxa-2λ^6-thia-3,5,12,19-tetrazatricyclo[12.3.1.14,8]nonadeca-1(18),4(19),5,7,14,16-hexaen-13-one] | < 1 µM | > 60% |  |  | ring closure, yield after HPLC ([2]; from Cc1cccc(C)c1-c1cc(OC[C@@H](CC(C)(C)C)NCc2cc(C(C)(C)C)[nH]n2)nc(NS(=O)(=O)c2cccc(C(=O)O)c2)n1, CDMT/NMM, 3.0 h, 2 steps): 20%
12 | Cc1cccc(C)c1-c1cc2nc(n1)NS(=O)(=O)c1cccc(c1)C(=O)N(Cc1cc(C3CC3)no1)[C@H](CC(C)(C)C)CO2 [Compound 137, (11R)-12-[(3-Cyclopropyl-1,2-oxazol-5-yl)methyl]-6-(2,6-dimethylphenyl)-11-(2,2-dimethylpropyl)-9-oxa-2λ^6-thia-3,5,12,19-tetraazatricyclo[12.3.1.14,8]nonadeca-1(17),4(19),5,7,14(18),15-hexaene-2,2,13-trione] |  |  | < 1 µM | > 60% | ring closure, yield after HPLC ([2]; from Cc1cccc(C)c1-c1cc(OC[C@@H](CC(C)(C)C)NCc2cc(C3CC3)no2)nc(NS(=O)(=O)c2cccc(C(=O)O)c2)n1, HATU/TEA, 15.4 mM, 2.0 h): 44%
